Experiment [1] deals with T1, Thromboxane A2 receptor (Homo sapiens, UniProt P21731).
T1 sequence (P21731 whole entry): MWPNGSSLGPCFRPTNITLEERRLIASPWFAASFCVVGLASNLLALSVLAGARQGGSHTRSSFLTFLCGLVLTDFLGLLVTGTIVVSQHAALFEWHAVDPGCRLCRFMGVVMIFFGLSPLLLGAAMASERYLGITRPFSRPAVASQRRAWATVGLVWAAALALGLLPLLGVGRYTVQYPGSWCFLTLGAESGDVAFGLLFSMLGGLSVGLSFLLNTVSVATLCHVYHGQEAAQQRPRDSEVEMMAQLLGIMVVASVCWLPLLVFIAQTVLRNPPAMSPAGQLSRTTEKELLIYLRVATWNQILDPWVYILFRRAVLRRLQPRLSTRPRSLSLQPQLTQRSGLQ

For experiment [2], the target named is T2, Alpha-1A adrenergic receptor (Homo sapiens, UniProt P35348).
T2 sequence (P35348 whole entry): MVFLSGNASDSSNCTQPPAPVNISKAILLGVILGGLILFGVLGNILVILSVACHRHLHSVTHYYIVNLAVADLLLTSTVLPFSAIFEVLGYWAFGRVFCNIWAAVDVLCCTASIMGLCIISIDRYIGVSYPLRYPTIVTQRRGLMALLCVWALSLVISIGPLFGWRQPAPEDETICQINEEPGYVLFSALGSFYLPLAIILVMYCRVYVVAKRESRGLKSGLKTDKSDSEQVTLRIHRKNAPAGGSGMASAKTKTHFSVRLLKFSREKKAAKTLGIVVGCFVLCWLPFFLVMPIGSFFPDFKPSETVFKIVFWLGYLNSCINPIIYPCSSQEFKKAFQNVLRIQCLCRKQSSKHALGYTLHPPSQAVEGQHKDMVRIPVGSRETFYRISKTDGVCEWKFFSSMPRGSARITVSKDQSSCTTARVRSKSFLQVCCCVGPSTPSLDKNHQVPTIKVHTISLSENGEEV
Format: functional, cell-based.

The target in experiment [3] is T3, Alpha-2A adrenergic receptor (Homo sapiens, UniProt P08913).
T3 sequence (P08913 whole entry): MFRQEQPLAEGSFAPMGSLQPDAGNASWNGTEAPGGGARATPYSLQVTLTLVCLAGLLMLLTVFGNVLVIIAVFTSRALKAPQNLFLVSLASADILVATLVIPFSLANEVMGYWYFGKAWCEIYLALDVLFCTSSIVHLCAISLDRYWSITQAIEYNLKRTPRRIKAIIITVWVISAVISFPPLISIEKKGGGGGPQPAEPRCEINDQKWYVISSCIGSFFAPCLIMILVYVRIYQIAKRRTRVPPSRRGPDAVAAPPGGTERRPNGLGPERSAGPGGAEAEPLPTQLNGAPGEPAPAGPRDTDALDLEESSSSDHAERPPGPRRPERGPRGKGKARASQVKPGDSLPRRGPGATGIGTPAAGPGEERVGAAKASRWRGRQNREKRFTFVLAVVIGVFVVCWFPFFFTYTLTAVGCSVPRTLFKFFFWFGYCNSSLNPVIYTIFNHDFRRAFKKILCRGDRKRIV
It is filed as functional, cell-based.

The target of experiment [4] is T4, Alpha-2C adrenergic receptor (Homo sapiens, UniProt P18825).
T4 sequence (P18825 whole entry): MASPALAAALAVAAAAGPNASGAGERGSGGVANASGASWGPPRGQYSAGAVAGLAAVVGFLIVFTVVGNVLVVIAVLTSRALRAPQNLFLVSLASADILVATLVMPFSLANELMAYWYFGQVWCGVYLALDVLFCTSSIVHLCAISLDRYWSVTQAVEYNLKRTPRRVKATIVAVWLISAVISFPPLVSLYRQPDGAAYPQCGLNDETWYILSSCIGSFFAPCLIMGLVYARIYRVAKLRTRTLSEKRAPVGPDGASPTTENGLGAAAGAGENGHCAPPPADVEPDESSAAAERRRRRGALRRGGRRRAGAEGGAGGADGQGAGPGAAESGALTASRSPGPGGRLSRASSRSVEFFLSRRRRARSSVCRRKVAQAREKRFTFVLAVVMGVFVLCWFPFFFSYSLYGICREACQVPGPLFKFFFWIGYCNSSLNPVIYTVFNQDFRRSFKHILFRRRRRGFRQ
It is filed as functional.

The target in experiment [5] is T5, B2 bradykinin receptor (Homo sapiens, UniProt P30411).
T5 sequence (P30411 whole entry): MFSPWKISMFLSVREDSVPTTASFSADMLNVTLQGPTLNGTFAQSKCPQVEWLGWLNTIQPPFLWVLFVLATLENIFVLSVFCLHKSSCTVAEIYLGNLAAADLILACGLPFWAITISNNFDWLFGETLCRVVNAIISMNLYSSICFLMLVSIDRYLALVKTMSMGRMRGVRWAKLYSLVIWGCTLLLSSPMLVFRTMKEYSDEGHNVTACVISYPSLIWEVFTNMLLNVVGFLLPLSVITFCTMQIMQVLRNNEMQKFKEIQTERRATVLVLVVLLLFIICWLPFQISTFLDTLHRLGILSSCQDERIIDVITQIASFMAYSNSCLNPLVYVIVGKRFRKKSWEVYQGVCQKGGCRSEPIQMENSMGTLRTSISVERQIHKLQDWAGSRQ

For experiment [6], the target named is cGMP-inhibited 3',5'-cyclic phosphodiesterase 3A (Homo sapiens, UniProt Q14432). Format: functional.
In experiment [7] the target is 3',5'-cyclic-AMP phosphodiesterase 4D (Homo sapiens, UniProt Q08499). Format: functional.
Experiment [8] has as its target 5-hydroxytryptamine receptor 2B (Homo sapiens, UniProt P41595). Format: functional, cell-based.
In experiment [9] the target is Adenosine receptor A2a (Homo sapiens, UniProt P29274).
Experiment [10] addresses T2, Alpha-1A adrenergic receptor. Format: functional, cell-based. The source holds these as a separate data set.
In experiment [11] the target is T6, Muscarinic acetylcholine receptor M1 (Homo sapiens, UniProt P11229).
T6 sequence (P11229 whole entry): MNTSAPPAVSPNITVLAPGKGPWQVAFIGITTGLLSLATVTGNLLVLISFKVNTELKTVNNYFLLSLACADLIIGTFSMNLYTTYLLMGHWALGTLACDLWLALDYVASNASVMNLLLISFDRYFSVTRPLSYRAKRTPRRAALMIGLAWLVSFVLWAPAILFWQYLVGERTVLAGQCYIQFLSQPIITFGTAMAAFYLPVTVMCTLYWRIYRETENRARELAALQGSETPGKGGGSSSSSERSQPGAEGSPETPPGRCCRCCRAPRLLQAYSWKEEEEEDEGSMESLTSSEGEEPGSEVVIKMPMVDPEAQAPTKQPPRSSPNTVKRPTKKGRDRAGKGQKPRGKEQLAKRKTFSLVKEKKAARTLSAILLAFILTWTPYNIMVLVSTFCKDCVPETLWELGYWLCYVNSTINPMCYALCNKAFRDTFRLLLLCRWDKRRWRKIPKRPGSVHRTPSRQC
It is filed as functional, cell-based.
Further: assay procedure not described here.

Chain of Adenosine receptor A2a (P29274 whole entry): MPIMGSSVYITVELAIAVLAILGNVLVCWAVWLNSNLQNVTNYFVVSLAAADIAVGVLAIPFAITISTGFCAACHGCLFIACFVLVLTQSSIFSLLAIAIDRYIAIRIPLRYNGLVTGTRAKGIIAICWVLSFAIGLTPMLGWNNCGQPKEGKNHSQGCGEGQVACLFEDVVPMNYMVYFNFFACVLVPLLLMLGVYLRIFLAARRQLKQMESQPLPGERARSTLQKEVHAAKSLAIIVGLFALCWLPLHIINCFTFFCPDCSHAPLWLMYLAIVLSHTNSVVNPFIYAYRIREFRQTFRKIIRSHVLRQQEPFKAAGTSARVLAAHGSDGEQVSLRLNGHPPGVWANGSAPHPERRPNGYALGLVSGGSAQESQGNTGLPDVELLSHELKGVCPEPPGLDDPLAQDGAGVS
Chain of 3',5'-cyclic-AMP phosphodiesterase 4D (Q08499 whole entry): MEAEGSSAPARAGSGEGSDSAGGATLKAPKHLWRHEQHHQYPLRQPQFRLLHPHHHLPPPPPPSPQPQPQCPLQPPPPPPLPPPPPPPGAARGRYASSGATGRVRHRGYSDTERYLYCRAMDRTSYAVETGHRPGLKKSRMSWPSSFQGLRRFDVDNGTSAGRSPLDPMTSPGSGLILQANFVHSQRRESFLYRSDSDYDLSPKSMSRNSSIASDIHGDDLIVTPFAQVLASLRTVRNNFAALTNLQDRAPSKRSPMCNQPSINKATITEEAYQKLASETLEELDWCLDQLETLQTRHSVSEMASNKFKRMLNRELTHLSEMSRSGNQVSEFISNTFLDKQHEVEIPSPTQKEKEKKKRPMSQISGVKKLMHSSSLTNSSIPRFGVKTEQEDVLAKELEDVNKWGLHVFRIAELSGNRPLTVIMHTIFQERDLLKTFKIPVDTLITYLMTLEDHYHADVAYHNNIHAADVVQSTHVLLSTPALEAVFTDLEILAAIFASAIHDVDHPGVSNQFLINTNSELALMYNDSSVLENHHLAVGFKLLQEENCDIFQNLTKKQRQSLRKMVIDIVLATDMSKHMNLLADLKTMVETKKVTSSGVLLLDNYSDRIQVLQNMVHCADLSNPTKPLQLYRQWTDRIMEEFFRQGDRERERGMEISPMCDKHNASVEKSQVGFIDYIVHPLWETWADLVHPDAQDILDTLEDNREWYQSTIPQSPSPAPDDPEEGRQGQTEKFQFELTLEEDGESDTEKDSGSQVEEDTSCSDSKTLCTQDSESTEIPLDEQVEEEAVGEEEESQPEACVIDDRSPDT
Chain of cGMP-inhibited 3',5'-cyclic phosphodiesterase 3A (Q14432 whole entry): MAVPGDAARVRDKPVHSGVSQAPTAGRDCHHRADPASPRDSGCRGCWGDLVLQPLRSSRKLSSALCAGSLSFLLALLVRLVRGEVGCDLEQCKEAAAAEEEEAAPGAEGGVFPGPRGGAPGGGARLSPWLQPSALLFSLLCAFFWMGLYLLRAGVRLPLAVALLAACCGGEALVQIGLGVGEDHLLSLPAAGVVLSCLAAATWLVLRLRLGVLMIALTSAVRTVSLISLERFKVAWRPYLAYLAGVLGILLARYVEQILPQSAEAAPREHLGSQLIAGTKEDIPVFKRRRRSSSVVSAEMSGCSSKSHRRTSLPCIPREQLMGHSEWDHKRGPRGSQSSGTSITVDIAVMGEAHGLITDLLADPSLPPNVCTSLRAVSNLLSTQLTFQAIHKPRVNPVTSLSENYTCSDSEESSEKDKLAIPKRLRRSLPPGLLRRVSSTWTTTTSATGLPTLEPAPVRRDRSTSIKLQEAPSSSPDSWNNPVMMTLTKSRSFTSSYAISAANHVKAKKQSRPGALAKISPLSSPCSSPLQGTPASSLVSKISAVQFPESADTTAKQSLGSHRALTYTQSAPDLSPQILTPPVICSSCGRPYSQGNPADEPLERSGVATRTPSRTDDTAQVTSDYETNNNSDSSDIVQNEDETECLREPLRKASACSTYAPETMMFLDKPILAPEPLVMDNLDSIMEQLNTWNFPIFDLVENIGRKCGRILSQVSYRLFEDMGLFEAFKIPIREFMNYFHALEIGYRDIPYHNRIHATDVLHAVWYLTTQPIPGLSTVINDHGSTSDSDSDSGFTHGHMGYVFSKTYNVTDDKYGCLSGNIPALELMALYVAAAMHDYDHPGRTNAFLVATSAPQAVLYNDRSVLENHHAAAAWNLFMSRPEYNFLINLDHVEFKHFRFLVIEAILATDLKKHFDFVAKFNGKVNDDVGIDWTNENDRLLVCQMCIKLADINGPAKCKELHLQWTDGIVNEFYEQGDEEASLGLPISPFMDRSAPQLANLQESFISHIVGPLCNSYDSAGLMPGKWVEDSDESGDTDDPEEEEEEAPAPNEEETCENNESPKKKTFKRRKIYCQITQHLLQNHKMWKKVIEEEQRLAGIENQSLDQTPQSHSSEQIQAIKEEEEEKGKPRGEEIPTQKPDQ
Chain of 5-hydroxytryptamine receptor 2B (P41595 whole entry): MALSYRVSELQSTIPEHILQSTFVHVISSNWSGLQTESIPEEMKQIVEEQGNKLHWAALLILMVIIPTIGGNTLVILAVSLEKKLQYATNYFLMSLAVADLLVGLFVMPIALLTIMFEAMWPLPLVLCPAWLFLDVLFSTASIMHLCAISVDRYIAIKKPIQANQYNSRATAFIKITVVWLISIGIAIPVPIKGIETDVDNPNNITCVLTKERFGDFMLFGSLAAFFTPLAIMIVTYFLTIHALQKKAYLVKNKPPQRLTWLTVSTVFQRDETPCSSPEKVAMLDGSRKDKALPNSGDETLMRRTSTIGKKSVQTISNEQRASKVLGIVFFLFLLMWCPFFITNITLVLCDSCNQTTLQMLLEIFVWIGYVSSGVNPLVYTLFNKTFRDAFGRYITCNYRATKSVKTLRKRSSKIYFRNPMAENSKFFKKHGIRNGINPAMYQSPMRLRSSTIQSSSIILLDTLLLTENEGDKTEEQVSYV

A word on the AC50: it is the midpoint of the concentration-response curve, whichever way the signal moves. As for `CC(=O)OCC[N+](C)(C)C` [ACETYLCHOLINE], the AC50 in [1] was above 30 µM; in [2] it was above 30 µM; in experiment [3], above 10 µM; in experiment [4], above 10 µM; in experiment [5], above 30 µM; in [6], above 30 µM. Also, the concentration at half-maximal activity (AC50) in [7] is above 30 µM; in [8], above 10 µM; in experiment [9], above 30 µM; in experiment [10], above 30 µM.
For `O=C(O)CC(O)(CC(=O)O)C(=O)O` [CITRIC ACID], the AC50 in experiment [2] and in [10] was above 30 µM throughout.
Regarding `CC[C@H]1OC(=O)[C@H](C)[C@@H](O[C@H]2C[C@@](C)(OC)[C@@H](O)[C@H](C)O2)[C@H](C)[C@@H](O[C@@H]2O[C@H](C)C[C@H](N(C)C)[C@H]2O)[C@](C)(OC)C[C@@H](C)C(=O)[C@H](C)[C@@H](O)[C@]1(C)O` [CLARITHROMYCIN], the AC50 in experiment [1], in [2], in [3], in [4], in experiment [5] and in [6] was above 30 µM throughout. Further, the AC50 in [7], in [8], in [9] and in [10] was above 30 µM each time.
For `C[C@H]1O[C@@H](O[C@H]2[C@@H](O)C[C@H](O[C@H]3[C@@H](O)C[C@H](O[C@H]4CC[C@@]5(C)[C@H](CC[C@@H]6[C@@H]5CC[C@]5(C)[C@@H](C7=CC(=O)OC7)CC[C@]65O)C4)O[C@@H]3C)O[C@@H]2C)C[C@H](O)[C@@H]1O` [DIGITOXIN], the AC50 in experiment [2] and in [10] was above 30 µM in each case.
Regarding `OC(CCCN1CCCCC1)(c1ccccc1)c1ccccc1` [DIPHENIDOL], the AC50 in [2] and in experiment [10] was above 30 µM throughout.
`O=C(CCCN1CC=C(n2c(=O)[nH]c3ccccc32)CC1)c1ccc(F)cc1` [DROPERIDOL]: the AC50 in experiment [2] and in experiment [10] was above 30 µM throughout.
Consider `CCn1cc(C(=O)O)c(=O)c2cc(F)c(N3CCNCC3)nc21` [ENOXACIN], for which the AC50 in experiment [1] is 6.06 µM; in experiment [2], above 30 µM; in [3], above 10 µM; in experiment [4] it was above 10 µM; in experiment [5], above 30 µM; in experiment [6] it was above 30 µM. In addition, the AC50 in experiment [7] was above 10 µM; in [8], above 10 µM; in [9], above 30 µM; in experiment [10], above 30 µM.
As for `Cc1cc(CCN2CCN(c3cccc(Cl)c3)CC2)n[nH]1` [MEPIPRAZOLE], the half-maximal activity concentration (AC50) in experiment [11] was determined as 26.3 µM; in experiment [10] it was 0.43 µM.
Regarding `c1ccc2c(CC3=NCCN3)cccc2c1` [NAPHAZOLINE], the AC50 was above 30 µM in experiment [11], 0.043 µM in experiment [3], 0.33 µM in experiment [4] and 0.0014 µM in experiment [10].
For the molecule `CNC(=O)Oc1ccc2c(c1)[C@]1(C)CCN(C)[C@@H]1N2C` [PHYSOSTIGMINE], the AC50 in experiment [1], in experiment [2], in [3], in experiment [4], in [5] and in experiment [6] was above 30 µM each time. For the same molecule, the AC50 in [7], in [8], in [9] and in experiment [10] was above 30 µM throughout.
Turning to `COCCCOc1ccnc(C[S+]([O-])c2nc3ccccc3[nH]2)c1C` (stereo not drawn) [RABEPRAZOLE], the AC50 was 11.4 µM in [1]; above 30 µM in experiment [2]; above 10 µM in experiment [3]; above 10 µM in experiment [4]; above 30 µM in experiment [5]; above 30 µM in experiment [6]. For the same molecule, the AC50 was 8 µM in experiment [7], above 10 µM in [8], above 30 µM in experiment [9] and above 30 µM in experiment [10].
The molecule `CO[C@H]1/C=C/O[C@@]2(C)Oc3c(C)c(O)c4c(O)c(cc(O)c4c3C2=O)NC(=O)/C(C)=C\C=C\[C@H](C)[C@H](O)[C@@H](C)[C@@H](O)[C@@H](C)[C@H](OC(C)=O)[C@@H]1C` [RIFAMYCIN] came in with an AC50 in [10] of 8.13 µM.
On to `O=C(Oc1ccccc1C(=O)O)c1ccccc1O` [SALSALATE], for which the concentration at half-maximal activity (AC50) in [2] and in [10] was above 30 µM each time.
Take `O=C(CCCN1CCC2(CC1)C(=O)NCN2c1ccccc1)c1ccc(F)cc1` [SPIPERONE]: the AC50 in [1] is above 30 µM; in [2], 0.081 µM; in experiment [3], 0.98 µM; in [4] it was 0.369 µM; in experiment [5], above 30 µM; in [6], above 30 µM. In addition, the AC50 in experiment [7] was above 30 µM; in experiment [8], 5.21 µM; in experiment [9], above 30 µM.
As for `c1ccc2[nH]c(-c3cscn3)nc2c1` [THIABENDAZOLE], the AC50 in experiment [2] and in experiment [10] was above 30 µM throughout.
For `CCSc1ccc2c(c1)N(CCCN1CCN(C)CC1)c1ccccc1S2` [THIETHYLPERAZINE], the AC50 in experiment [4] is 2.2 µM; in experiment [6], above 30 µM; in experiment [7], 16 µM; in experiment [9] it was above 30 µM; in experiment [10] it was 24.7 µM.
Take `C[C@@H]1C[C@H]2[C@@H]3CCC4=CC(=O)C=C[C@]4(C)C3=CC[C@]2(C)[C@H]1C(=O)CN1CCN(c2cc(N3CCCC3)nc(N3CCCC3)n2)CC1` [TIRILAZAD]: the concentration at half-maximal activity (AC50) in experiment [2] and in experiment [10] was above 30 µM throughout.
Take `OCCN1CCN(CC/C=C2/c3ccccc3Sc3ccc(Cl)cc32)CC1` [ZUCLOPENTHIXOL]: the AC50 is above 10 µM in experiment [1]; 7.3 µM in [3]; 0.16 µM in experiment [4]; above 10 µM in [5]; above 30 µM in experiment [6]; above 10 µM in [7]. Also, the AC50 in experiment [8] and in experiment [9] was above 10 µM in each case.

Source of the values: ChEMBL document CHEMBL5291721, “A preclinical secondary pharmacology resource illuminates target-adverse drug reaction associations of marketed drugs” (Nat Commun, 2023).
